According to publication PMC4564450, “Oral and inhaled p38 MAPK inhibitors: effects on inhaled LPS challenge in healthy subjects” (European Journal of Clinical Pharmacology, 2015):

Key:
[1] = test system: sputum neutrophils and macrophages after inhaled LPS; test: Inhaled LPS challenge in healthy subjects: induced sputum cell counts; type: in vivo, human; conditions: study 3
Method: Three randomised, double-blind, placebo-controlled crossover studies were performed; the effects of a single dose of active treatment was investigated in all three studies. […] Studies 2 and 3 were conducted at two UK centres: Quintiles Drug Research Unit, London, and Medicines Evaluation Unit, Manchester. […] The studies were performed during the following time periods: study 1, Sep 2006–Mar 2008; study 2, Jan 2011–Dec 2011; and study 3, Jul 2011–Jan 2012. The design of all three studies was similar. A baseline sputum sample was obtained within 14 days of the first study period when subjects were administered a single dose of randomised treatment. […] Induced sputum was obtained 6 h later to coincide with the maximal inflammatory response caused by inhaled LPS. […] This criterion was used to ensure that sputum cell counts after LPS challenge had returned to close to the original baseline values; this was done to reduce data variability between treatment periods. […] For each challenge, a 1-mg vial of lyophilised LPS (Escherichia coli serotype O26:B6, ref. L-2654, Sigma-Aldrich, Dorset, UK) was diluted with 4 mL of 0.9 % w/v sodium chloride. The reconstitution produced a 0.25 mg/mL solution, of which 2 mL was placed into the pre-calibrated dosimeter pot and administered via five inhalations from a breath-activated dosimeter (Mefar dosimeter MB3, Brescia, Italy). Each inhalation was performed over 3 s with a 6-s breath hold. […] Sputum was induced using normal saline after inhalation of salbutamol, and processing was performed using dithiothreitol (DTT) as previously described. The supernatants were stored at −80 °C for later analysis, while cells were used to produce cytoslides (Cytospin 4, Shandon, Runcorn, UK) for differential cell counting and immunocytochemistry. […] Cell viability was analysed by trypan blue exclusion. Cytoslides with % squamous cell counts <20 % were deemed to be of acceptable quality for differential cell counting. Unfixed cytoslides were wrapped in aluminium foil and stored frozen at −80 °C for immunocytochemistry. Sputum neutrophil percentage was the primary endpoint for all three studies. The neutrophil percentage was modelled using a mixed effects analysis of covariance (ANCOVA) model appropriate for a two-period, two-treatment or three-period, three-treatment crossover design. The fixed effects in the model were treatment and period. Subjects were modelled as a random effect. Additionally, the period-specific baseline was modelled as a covariate. This model was used for all sputum inflammatory markers, including the immunohistocytochemistry, where cell counts were log transformed before analyzing the data and percent differentials were not transformed. […] Ninety percent confidence intervals of the difference (non-transformed data) or the ratio (log-transformed data) were constructed based on the ANCOVA model.

[2] = set-up: method as in PMID 12373268; conditions: single inhaled dose; cited from earlier work
[3] = test system: IL-6, MCP-1, MIP1β, CC16, fibrinogen and CRP levels in plasma; test: Inhaled LPS challenge: plasma protein biomarkers; type: in vivo, human; conditions: study 3
Method: Blood samples were obtained in studies 2 and 3 to obtain plasma measurements of IL-6, MCP-1, MIP1β, CC16, fibrinogen and CRP levels; pre-dose and 6 h post-LPS samples were used for statistical analysis. This coincided with the timings of sputum measurements of inflammation biomarkers.
Systemic biomarkers were analysed using a similar mixed effects model; these models also adjusted for pre-dose baseline values, which were obtained 24 h prior to LPS challenge in study 2 and 30 min prior to LPS challenge in study 3.

[4] = Plasma pharmacokinetics (sparse sampling); type: in vivo, human; conditions: study 3, fluticasone 500 μg inhaled
[5] = test system: IL-6, MPO, MCP-1 and MIP-1β in sputum supernatant; test: Inhaled LPS challenge: sputum supernatant protein biomarkers; type: in vivo, human; conditions: study 3
Method: A baseline sputum sample was obtained within 14 days of the first study period when subjects were administered a single dose of randomised treatment. […] Induced sputum was obtained 6 h later to coincide with the maximal inflammatory response caused by inhaled LPS. A washout period of at least 21 days followed, with subjects returning after 14 days of the washout period for induced sputum sampling; this was performed to ensure that the total cell count, total neutrophil count and total macrophage count were within the range of −80 to +100 % of the screening values. […] If these criteria were not met, then up to two repeat visits to obtain sputum were allowed, with at least 4 days between sputum inductions. The next randomised treatment day was scheduled at least 4 days after sputum induction and was identical to the first treatment day.
Sputum was induced using normal saline after inhalation of salbutamol, and processing was performed using dithiothreitol (DTT) as previously described [20]. The supernatants were stored at −80 °C for later analysis, while cells were used to produce cytoslides (Cytospin 4, Shandon, Runcorn, UK) for differential cell counting and immunocytochemistry. Cytoslides for differential cell count were fixed in methanol (Sigma) and then stained with Rapi-Diff® (GCC Diagnostics, Sandyhurst, UK) or Wright-modified Giemsa (Accustatin WG-18, Sigma-Aldrich); a minimum of 400 non-squamous cells were counted and differential cell counts obtained as percentage of total non-squamous cells. Cell viability was analysed by trypan blue exclusion. Cytoslides with % squamous cell counts <20 % were deemed to be of acceptable quality for differential cell counting. Unfixed cytoslides were wrapped in aluminium foil and stored frozen at −80 °C for immunocytochemistry.
In studies 1 and 2, sputum supernatants were analysed for interleukin 6 (IL-6), myeloperoxidase (MPO), monocyte chemotactic protein-1 (MCP-1) and macrophage inflammatory protein-1β (MIP-1 β), using electrochemiluminescent immunoassays (ECLIA) or enzyme-linked immunosorbent assays (ELISA); the manufacturers are listed in the online supplement. In study 3, sputum supernatants were analysed for IL-6, MCP-1 and MIP-1β by the same method.

[6] = test system: airway inflammation after LPS challenge; set-up: method as in PMID 17045826; conditions: oral, 6-day treatment; cited from earlier work
[7] = oral, 12-week treatment; cited from earlier work
[8] = fluticasone 500 μg inhaled, post LPS, ANCOVA model mean
[9] = fluticasone 500 μg inhaled, 6 hrs post LPS
[10] = fluticasone propionate 500 μg inhaled
[11] = fluticasone 500 μg inhaled, post LPS

In the case of `CCC(=O)O[C@]1(C(=O)SCF)[C@H](C)C[C@H]2[C@@H]3C[C@H](F)C4=CC(=O)C=C[C@]4(C)[C@@]3(F)[C@@H](O)C[C@@]21C` [fluticasone propionate, reference compound], the “Mean (SD) sputum neutrophil percentage” value ([1]; fluticasone 500 μg inhaled single dose, 6 h post-LPS) is reported as 70.0 (12.9) %, the “Macrophage Differential in sputum” value [1, 8] is reported as 27.53% and the “Total Cell Count in sputum” value [1, 8] is reported as 3.02e+06 g⁻¹. For the same compound, the “Total Macrophage Count in sputum” value [1, 8] was 820000 g⁻¹, the “Total Neutrophil Count in sputum” value [1, 8] was 2.04e+06 g⁻¹ and the “sputum neutrophil percentage post-LPS challenge compared to placebo” value ([1]; fluticasone propionate 500 μg inhaled single dose, p = 0.55) was “not changed significantly”. For the same compound, the “Total Cell Count in sputum, Ratio of Means active/placebo” value ([1]; post LPS) was 0.90, the “Total Macrophage Count in sputum, Ratio of Means active/placebo” value ([1]; post LPS) was 0.93 and the “Total Neutrophil Count in sputum, Ratio of Means active/placebo” value ([1]; post LPS) was “no effects”. The “Macrophage Differential in sputum, difference between the active treatment mean and the placebo mean” value ([1]; post LPS, footnote: difference, not ratio) was 2.04%, the “Total Neutrophil Count in sputum, Ratio of Means active/placebo” value ([1]; post LPS, listed as Fluticasone) was 0.66 and the “effects of bronchial challenges in asthma” value [2] was “significantly inhibit”. The “Plasma CC16, mean” value [3, 9] was 10.51 ng/mL, the “Plasma CRP, mean” value [3, 9] was 708.10 ng/mL and the “Plasma Fibrinogen, mean” value [3, 9] was 2058.00 µg/mL. For the same compound, the “Plasma IL-6, mean” value [3, 9] was 23.30 pg/mL, the “Plasma MCP-1, mean” value [3, 9] was 401.70 pg/mL and the “Plasma MIP-1β, mean” value [3, 9] was 76.95 pg/mL. The “systemic biomarkers compared to placebo” value [3, 10] was “no effect”, the Plasma concentration ([4]; 1.5 h) was 56.0 (29.4) pg/mL and the Plasma concentration ([4]; 6.5 h) was 37.31 (15.1) pg/mL. For the same compound, the “Sputum IL-6, mean” value [5, 11] was 200.97 pg/mL, the “Sputum MCP-1, mean” value [5, 11] was 133.79 pg/mL and the “Sputum MIP-1β, mean” value [5, 11] was 1157.87 pg/mL. The “sputum cytokine measurements compared to placebo” value [5, 10] was “no effects”.
In the case of `C[C@]12C=CC(=O)C=C1CC[C@@H]1[C@@H]2[C@@H](O)C[C@@]2(C)[C@H]1CC[C@]2(O)C(=O)CO` [prednisolone], the “airway inflammation in an LPS challenge study” value [6] is given as “no effect” and the “plasma CRP levels in an LPS challenge study” value [6] is given as “suppressed”.
For `Cc1c(F)cc(C(=O)NC2CC2)cc1-c1ccc(C(=O)NCC(C)(C)C)cn1` [losmapimod, reference compound], the “sputum neutrophil counts in COPD patients” value [7] is given as “failed to reduce”.
